This data set concerns CCRIS mutagenicity, Ames/micronucleus/aberration tests. Kind of data set: CCRIS mutagenicity studies.
Setting [1] is: Test System: AMES SALMONELLA TYPHIMURIUM, Strain/Indicator: TA98, Metabolic Activation: NONE, Method: STANDARD PLATE.
Setting [2] is: Test System: AMES SALMONELLA TYPHIMURIUM, Strain/Indicator: TA98(1,8-DNP6), Metabolic Activation: NONE, Method: STANDARD PLATE.
[3] abbreviates: Test System: AMES SALMONELLA TYPHIMURIUM, Strain/Indicator: TA98(NR), Metabolic Activation: NONE, Method: STANDARD PLATE.
[4] abbreviates: Test System: AMES SALMONELLA TYPHIMURIUM, Strain/Indicator: TA98, Metabolic Activation: NONE, Method: PREINCUBATION
Where [5] appears, read: Test System: AMES SALMONELLA TYPHIMURIUM, Strain/Indicator: TA100, Metabolic Activation: NONE, Method: PREINCUBATION

Activity calls are given as the source filed them. No rule for the calls is given here.

As for `c1ccc(OC2CO2)cc1` (stereo not given), the mutagenic call by setting is: (Test System: AMES SALMONELLA TYPHIMURIUM, Strain/Indicator: TA98, Metabolic Activation: RAT LIVER MICROSOMES, Method: STANDARD PLATE) “active; positive”; (Test System: AMES SALMONELLA TYPHIMURIUM, Strain/Indicator: TA1535, Metabolic Activation: RAT LIVER MICROSOMES, Method: STANDARD PLATE) “active; positive”.

On to `Nc1c(N=Nc2ccc([N+](=O)[O-])cc2)c(S(=O)(=O)O)cc2c1C(=O)/C(=N\Nc1ccc(-c3ccc(NN=C4C=CC(=O)C=C4)cc3)cc1)C(S(=O)(=O)O)=C2`, for which the mutagenic call is “active; positive” (Test System: AMES SALMONELLA TYPHIMURIUM, Strain/Indicator: TA98, Metabolic Activation: HAMSTER, LIVER, S-9, Method: PREINCUBATION (PRIVAL METHOD)); “inactive; negative” under setting [1]; “inactive; negative” (Test System: AMES SALMONELLA TYPHIMURIUM, Strain/Indicator: TA98, Metabolic Activation: RAT, LIVER, S-9, PHENOBARBITAL, Method: STANDARD PLATE); “inactive; negative” (Test System: AMES SALMONELLA TYPHIMURIUM, Strain/Indicator: TA100, Metabolic Activation: NONE, Method: STANDARD PLATE); “inactive; negative” (Test System: AMES SALMONELLA TYPHIMURIUM, Strain/Indicator: TA100, Metabolic Activation: RAT, LIVER, S-9, PHENOBARBITAL, Method: STANDARD PLATE).

As to `C[C@]12CC[C@@H]3c4ccc(O)cc4C[C@@H](CCCCCCCCCS(=O)CCCC(F)(F)C(F)(F)F)[C@H]3[C@@H]1CC[C@@H]2O` (stereo not given in full), the mutagenic call (Test System: CHINESE HAMSTER V-79, Strain/Indicator: V-79 (HPRT)/6-THIOGUANINE, Metabolic Activation: NONE, Method: SUSPENSION/PLATE) is “active; positive”.

As for `O=[N+]([O-])c1cc([N+](=O)[O-])c2cccc3c2c1-c1ccccc1-3`, the mutagenic call runs as follows: under setting [2], “active; positive”; under setting [3], “active; positive”; under setting [1], “active; positive”.

Take `Cc1c2ccccc2c(CO)c2c3c(ccc12)[C@@H](O)[C@H](O)C=C3`: the mutagenic call was “active; positive” (Test System: CHINESE HAMSTER V-79, Strain/Indicator: V-79/6-THIOGUANINE, Metabolic Activation: CELL-MEDIATED, Method: STANDARD PLATE) and “active; positive” (Test System: CHINESE HAMSTER V-79, Strain/Indicator: V-79/OUABAIN, Metabolic Activation: CELL-MEDIATED, Method: STANDARD PLATE).

Regarding `NC1CCC(CC2CCC(N)CC2)CC1` (stereo not given), the mutagenic call was “inactive; negative” (Test System: AMES SALMONELLA TYPHIMURIUM, Strain/Indicator: TA98, Metabolic Activation: HAMSTER, LIVER, S-9, AROCLOR 1254 (10%), Method: PREINCUBATION); “inactive; negative” under setting [4]; “inactive; negative” (Test System: AMES SALMONELLA TYPHIMURIUM, Strain/Indicator: TA98, Metabolic Activation: RAT, LIVER, S-9, AROCLOR 1254 (10%), Method: PREINCUBATION); “inactive; negative” (Test System: AMES SALMONELLA TYPHIMURIUM, Strain/Indicator: TA100, Metabolic Activation: HAMSTER, LIVER, S-9, AROCLOR 1254 (10%), Method: PREINCUBATION); “inactive; negative” under setting [5]; “inactive; negative” (Test System: AMES SALMONELLA TYPHIMURIUM, Strain/Indicator: TA100, Metabolic Activation: RAT, LIVER, S-9, AROCLOR 1254 (10%), Method: PREINCUBATION). In addition, the mutagenic call reads like this: (Test System: AMES SALMONELLA TYPHIMURIUM, Strain/Indicator: TA1535, Metabolic Activation: HAMSTER, LIVER, S-9, AROCLOR 1254 (10%), Method: PREINCUBATION) “inactive; negative”; (Test System: AMES SALMONELLA TYPHIMURIUM, Strain/Indicator: TA1535, Metabolic Activation: NONE, Method: PREINCUBATION) “inactive; negative”; (Test System: AMES SALMONELLA TYPHIMURIUM, Strain/Indicator: TA1535, Metabolic Activation: RAT, LIVER, S-9, AROCLOR 1254 (10%), Method: PREINCUBATION) “inactive; negative”; (Test System: AMES SALMONELLA TYPHIMURIUM, Strain/Indicator: TA1537, Metabolic Activation: HAMSTER, LIVER, S-9, AROCLOR 1254 (10%), Method: PREINCUBATION) “inactive; negative”; (Test System: AMES SALMONELLA TYPHIMURIUM, Strain/Indicator: TA1537, Metabolic Activation: NONE, Method: PREINCUBATION) “inactive; negative”; (Test System: AMES SALMONELLA TYPHIMURIUM, Strain/Indicator: TA1537, Metabolic Activation: RAT, LIVER, S-9, AROCLOR 1254 (10%), Method: PREINCUBATION) “inactive; negative”.

As for `O=C(Cl)c1ccccc1C(=O)Cl`, the mutagenic call was “active; positive” under setting [4]; “active; positive” (Test System: AMES SALMONELLA TYPHIMURIUM, Strain/Indicator: TA98, Metabolic Activation: RAT LIVER S-9, PCB, Method: PREINCUBATION); “active; positive” under setting [5]; “active; positive” (Test System: AMES SALMONELLA TYPHIMURIUM, Strain/Indicator: TA100, Metabolic Activation: RAT LIVER S-9, PCB, Method: PREINCUBATION); “active; positive” (Test System: AMES SALMONELLA TYPHIMURIUM, Strain/Indicator: TA104, Metabolic Activation: NONE, Method: PREINCUBATION); “active; positive” (Test System: AMES SALMONELLA TYPHIMURIUM, Strain/Indicator: TA104, Metabolic Activation: RAT LIVER S-9, PCB, Method: PREINCUBATION). For the same compound, the mutagenic call (Test System: E.COLI, Strain/Indicator: WP2 UVRA, Metabolic Activation: NONE, Method: PREINCUBATION) was “active; positive” and the mutagenic call (Test System: E.COLI, Strain/Indicator: WP2 UVRA, Metabolic Activation: RAT LIVER S-9, PCB, Method: PREINCUBATION) was “active; positive”.

As to `O=[N+]([O-])c1ccc2c(ccc3cc([N+](=O)[O-])ccc32)c1`, the mutagenic call under setting [2] was “active; positive”; the mutagenic call under setting [3] is “active; positive”; the mutagenic call under setting [4] was “active; positive”; the mutagenic call under setting [1] is “active; positive”; the mutagenic call (Test System: AMES SALMONELLA TYPHIMURIUM, Strain/Indicator: TA98, Metabolic Activation: RAT, LIVER, S-9, PCB (10%), Method: PREINCUBATION) was “inactive; negative”; the mutagenic call (Test System: AMES SALMONELLA TYPHIMURIUM, Strain/Indicator: TA7001, Metabolic Activation: NONE, Method: PREINCUBATION) was “active; positive”. For the same compound, the mutagenic call is “active; positive” (Test System: AMES SALMONELLA TYPHIMURIUM, Strain/Indicator: TA7002, Metabolic Activation: NONE, Method: PREINCUBATION); “active; positive” (Test System: AMES SALMONELLA TYPHIMURIUM, Strain/Indicator: TA7003, Metabolic Activation: NONE, Method: PREINCUBATION); “active; positive” (Test System: AMES SALMONELLA TYPHIMURIUM, Strain/Indicator: TA7004, Metabolic Activation: NONE, Method: PREINCUBATION); “active; positive” (Test System: AMES SALMONELLA TYPHIMURIUM, Strain/Indicator: TA7005, Metabolic Activation: NONE, Method: PREINCUBATION); “active; positive” (Test System: AMES SALMONELLA TYPHIMURIUM, Strain/Indicator: TA7006, Metabolic Activation: NONE, Method: PREINCUBATION).

For `Clc1cc2c3nc4[n-]c(nc5nc(nc6nc(nc([n-]3)c2c(Cl)c1Cl)-c1c(Cl)c(Cl)c(Cl)c(Cl)c1-6)-c1c(Cl)c(Cl)c(Cl)c(Cl)c1-5)c1c(Cl)c(Cl)c(Cl)c(Cl)c41.[Cu+2]`, the mutagenic call is, setting by setting: (Test System: AMES SALMONELLA TYPHIMURIUM, Strain/Indicator: TA98, Metabolic Activation: HAMSTER, LIVER, S-9, AROCLOR 1254 (30%), Method: PREINCUBATION) “active; positive”; under setting [4], “inactive; negative”; (Test System: AMES SALMONELLA TYPHIMURIUM, Strain/Indicator: TA98, Metabolic Activation: RAT, LIVER, S-9, AROCLOR 1254 (30%), Method: PREINCUBATION) “active; positive”; (Test System: AMES SALMONELLA TYPHIMURIUM, Strain/Indicator: TA100, Metabolic Activation: HAMSTER, LIVER, S-9, AROCLOR 1254 (30%), Method: PREINCUBATION) “inactive; negative”; under setting [5], “inactive; negative”; (Test System: AMES SALMONELLA TYPHIMURIUM, Strain/Indicator: TA100, Metabolic Activation: RAT, LIVER, S-9, AROCLOR 1254 (30%), Method: PREINCUBATION) “inactive; negative”.

The record behind these values is PubChem BioAssay AID1259407 (Chemical Carcinogenesis Research Information System (CCRIS), 2018).
